# Literature values in PMC10517971, “An inverse agonist of orphan receptor GPR61 acts by a G protein-competitive allosteric mechanism” (Nature Communications, 2023).
# Columns and labels:
# GPR61 = system: GPR61; design: method as in PMID 14607265, PMID 31352450; details: cited from earlier work
# [1] = cited from earlier work
compound,measurement,setting,value
"CCCCCCCCCOc1ccc2[nH]cc(CCN)c2c1 [Compound 5-NOT, 5-nonyloxy-tryptamine]",potency as GPR61 inverse agonist,GPR61,low potency
same,selectivity,GPR61,lack of selectivity
same,solubility,[1],low solubility
